Laboratory results taken from ChEMBL document CHEMBL1201862, “PubChem BioAssay data set” (2004).
Activity calls are given as the source filed them.

Assays:
[1] = target: T1, Mannose-6-phosphate isomerase (Homo sapiens, UniProt P34949); assay: human PMI inhibitors, high substrate, primary screen, biochemical, fluorescence intensity, high mannose 6-phosphate (AID 1220)
T1 sequence (P34949 whole entry): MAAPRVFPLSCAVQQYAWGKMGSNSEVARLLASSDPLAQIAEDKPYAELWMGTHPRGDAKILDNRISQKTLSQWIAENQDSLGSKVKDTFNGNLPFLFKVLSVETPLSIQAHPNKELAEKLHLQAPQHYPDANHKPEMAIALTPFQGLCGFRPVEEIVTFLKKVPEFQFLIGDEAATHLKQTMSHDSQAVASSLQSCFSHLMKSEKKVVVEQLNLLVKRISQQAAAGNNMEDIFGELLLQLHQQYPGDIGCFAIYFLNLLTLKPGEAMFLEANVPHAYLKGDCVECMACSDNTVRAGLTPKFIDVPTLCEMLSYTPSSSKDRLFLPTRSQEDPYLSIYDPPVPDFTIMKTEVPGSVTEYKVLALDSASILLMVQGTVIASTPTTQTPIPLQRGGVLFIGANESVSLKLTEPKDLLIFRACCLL

cells [2] = assay type: functional, cell-based
cells [3] = assay type: functional, cell-based; remark: listed apart in the source
[4] = THP-1 cell cytotoxicity, dose response, cytotoxicity control for non-replicating M. tuberculosis project (AID 489025); assay type: functional
cells [5] = assay type: functional
[6] = target: Heat shock protein HSP 90-alpha (Homo sapiens, UniProt P07900); assay type: functional, organism-based
Leucine aminopeptidase = target: T2, Leucine aminopeptidase (Plasmodium falciparum 3D7, UniProt Q8IL11); assay: P. falciparum M17LAP inhibitors, primary screen, biochemical, fluorogenic H-Leu-NHMec substrate, 1536-well (AID 1619); assay type: functional
T2 sequence (Q8IL11 whole entry): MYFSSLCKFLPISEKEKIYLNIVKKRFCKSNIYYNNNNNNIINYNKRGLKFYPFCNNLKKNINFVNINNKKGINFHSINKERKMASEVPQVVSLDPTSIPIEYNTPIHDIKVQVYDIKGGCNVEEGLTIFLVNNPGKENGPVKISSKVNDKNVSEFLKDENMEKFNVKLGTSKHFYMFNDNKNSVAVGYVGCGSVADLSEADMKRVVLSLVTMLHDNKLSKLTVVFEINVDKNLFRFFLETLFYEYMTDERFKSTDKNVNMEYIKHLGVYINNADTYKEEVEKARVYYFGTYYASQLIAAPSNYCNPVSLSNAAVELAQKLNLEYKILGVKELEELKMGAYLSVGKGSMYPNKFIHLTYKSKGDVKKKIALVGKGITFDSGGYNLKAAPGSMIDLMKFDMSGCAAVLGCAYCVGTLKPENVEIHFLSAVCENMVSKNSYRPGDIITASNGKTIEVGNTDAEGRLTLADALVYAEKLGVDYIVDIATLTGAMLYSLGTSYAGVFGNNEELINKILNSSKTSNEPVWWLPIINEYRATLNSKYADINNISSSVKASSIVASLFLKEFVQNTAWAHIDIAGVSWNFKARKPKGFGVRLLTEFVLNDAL

Genome polyprotein = Genome polyprotein (dengue virus type 2, UniProt P29990); assay: Dengue-2 NS5 methyltransferase inhibitors, primary screen, biochemical, confirmation dose response (AID 588689); assay type: functional
Sequence of Genome polyprotein (P29990 2492-3391 limits assumed): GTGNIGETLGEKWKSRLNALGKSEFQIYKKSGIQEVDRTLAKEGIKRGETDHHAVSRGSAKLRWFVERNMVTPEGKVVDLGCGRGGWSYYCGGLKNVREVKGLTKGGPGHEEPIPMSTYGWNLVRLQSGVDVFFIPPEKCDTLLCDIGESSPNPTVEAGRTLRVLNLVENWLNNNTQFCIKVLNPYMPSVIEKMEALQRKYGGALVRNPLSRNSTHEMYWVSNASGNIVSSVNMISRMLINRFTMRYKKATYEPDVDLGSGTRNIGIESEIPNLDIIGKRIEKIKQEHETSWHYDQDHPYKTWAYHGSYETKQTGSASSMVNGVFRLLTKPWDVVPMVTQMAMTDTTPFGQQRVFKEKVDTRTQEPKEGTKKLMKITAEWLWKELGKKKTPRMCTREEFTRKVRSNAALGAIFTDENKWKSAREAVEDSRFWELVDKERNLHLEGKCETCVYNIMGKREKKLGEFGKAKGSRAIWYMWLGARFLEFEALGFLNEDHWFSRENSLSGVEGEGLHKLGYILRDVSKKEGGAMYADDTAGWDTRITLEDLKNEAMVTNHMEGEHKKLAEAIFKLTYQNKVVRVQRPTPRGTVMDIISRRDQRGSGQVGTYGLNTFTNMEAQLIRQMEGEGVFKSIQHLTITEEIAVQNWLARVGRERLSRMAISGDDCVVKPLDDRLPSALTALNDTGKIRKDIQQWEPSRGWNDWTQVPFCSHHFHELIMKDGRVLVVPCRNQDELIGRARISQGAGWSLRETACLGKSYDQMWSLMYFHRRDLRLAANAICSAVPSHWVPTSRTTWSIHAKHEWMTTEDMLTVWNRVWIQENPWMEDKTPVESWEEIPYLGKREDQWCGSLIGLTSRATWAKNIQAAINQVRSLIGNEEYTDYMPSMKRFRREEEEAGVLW

[7] = control 3'UTR Renilla luciferase suppression, dose response, counter-screen for Shn3 inhibitor project, cell-based, Clone20-Shn3RL, cherry-picked (AID 624133); assay type: functional
[8] = Shn3 3'UTR reporter inhibitors, dose response, cell-based, Clone20 osteoblasts, firefly luciferase, cherry-picked (AID 624132); assay type: functional;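 note: firefly luciferase luminescence from reporter carrying the Shn3 3'UTR in osteoblasts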
[9] = target: Induced myeloid leukemia cell differentiation protein Mcl-1 (Homo sapiens, UniProt Q07820); assay type: functional
Sequence of Induced myeloid leukemia cell differentiation protein Mcl-1 (Q07820 whole entry): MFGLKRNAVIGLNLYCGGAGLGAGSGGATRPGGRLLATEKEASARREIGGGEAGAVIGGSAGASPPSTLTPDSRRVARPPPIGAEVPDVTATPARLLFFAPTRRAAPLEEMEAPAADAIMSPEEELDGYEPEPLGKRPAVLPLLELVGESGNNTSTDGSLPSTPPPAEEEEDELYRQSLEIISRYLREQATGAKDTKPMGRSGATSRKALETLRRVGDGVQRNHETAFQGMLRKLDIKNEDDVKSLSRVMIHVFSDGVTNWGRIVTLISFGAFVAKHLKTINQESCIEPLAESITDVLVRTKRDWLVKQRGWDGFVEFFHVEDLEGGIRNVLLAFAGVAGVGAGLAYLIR

Cytochrome P450 3A4 = Cytochrome P450 3A4 (Homo sapiens, UniProt P08684); details: Potency;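 note: confirmatory qHTS run detecting inhibitors and substrates of CYP3A4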
Sequence of Cytochrome P450 3A4 (P08684 whole entry): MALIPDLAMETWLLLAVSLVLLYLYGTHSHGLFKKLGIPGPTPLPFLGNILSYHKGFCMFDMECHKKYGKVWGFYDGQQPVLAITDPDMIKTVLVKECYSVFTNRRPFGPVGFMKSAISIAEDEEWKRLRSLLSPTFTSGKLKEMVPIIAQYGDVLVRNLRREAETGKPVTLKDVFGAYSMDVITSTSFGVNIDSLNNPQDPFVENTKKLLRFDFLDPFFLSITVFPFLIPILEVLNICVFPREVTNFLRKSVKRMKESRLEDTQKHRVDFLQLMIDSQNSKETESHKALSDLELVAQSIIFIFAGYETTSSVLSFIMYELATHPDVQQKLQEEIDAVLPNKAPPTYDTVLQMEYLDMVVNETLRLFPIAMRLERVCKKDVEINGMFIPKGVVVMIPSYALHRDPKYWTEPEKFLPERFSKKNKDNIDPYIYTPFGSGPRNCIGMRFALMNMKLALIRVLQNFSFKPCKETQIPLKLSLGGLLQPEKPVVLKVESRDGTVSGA

Cytochrome P450 1A2 = target: T3, Cytochrome P450 1A2 (Homo sapiens, UniProt P05177);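 note: PubChem cytochrome P450 panel assay, CYP1A2 panel member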
T3 sequence (P05177 whole entry): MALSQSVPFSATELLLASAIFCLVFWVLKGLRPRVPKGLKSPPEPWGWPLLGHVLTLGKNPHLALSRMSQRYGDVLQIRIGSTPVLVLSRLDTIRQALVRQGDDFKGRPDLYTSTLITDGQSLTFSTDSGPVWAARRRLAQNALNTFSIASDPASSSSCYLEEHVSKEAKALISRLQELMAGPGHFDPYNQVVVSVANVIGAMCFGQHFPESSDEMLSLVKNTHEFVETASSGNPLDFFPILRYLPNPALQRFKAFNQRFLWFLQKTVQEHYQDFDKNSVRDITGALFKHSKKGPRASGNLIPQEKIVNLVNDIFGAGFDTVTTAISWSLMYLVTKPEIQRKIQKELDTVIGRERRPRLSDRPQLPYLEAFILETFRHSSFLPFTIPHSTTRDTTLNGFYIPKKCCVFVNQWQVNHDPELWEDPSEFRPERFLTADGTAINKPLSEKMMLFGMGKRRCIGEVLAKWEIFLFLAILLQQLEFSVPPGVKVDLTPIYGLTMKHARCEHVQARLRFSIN

[10] = inhibitors of clade B AD8 Env fusion, dose response, cell-based, cherry-pick (AID 652062); assay type: functional;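 note: luciferase signal from cell-cell fusion driven by HIV-1 clade B AD8 Env; potency is for inhibitors of fusion seen as a drop in luminescence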
[11] = inhibitors of HIV Env-driven cell fusion, dose response, cherry-pick (AID 652057); assay type: functional, cell-based
[12] = ZM109 Env clade C HIV-1 fusion inhibitors, dose response, HeLa effector, CEM target cells, luciferase, cherry-pick (AID 652058); assay type: functional, cell-based
[13] = off-target signal loss in HeLa-CEM21 co-culture – HeLa F-luc CTL cells, cherry-picked, counter-screen for HIV-1 Env fusion inhibitor project, dose response (AID 652040); assay type: functional, cell-based;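 note: potency for signal decrease marking cytotoxic or nonspecific inhibition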
[14] = cytotoxicity in OVCAR8 ovarian cancer cells, dose response, PAX8 project, cell-based, plate reader, dry powder samples (AID 743197); assay type: functional; details: OVCAR-8
Paired box protein Pax-8 = Paired box protein Pax-8 (Homo sapiens, UniProt Q06710); assay: inhibitors of PAX8-driven TPO luciferase reporter, dose response, RMG-I cells, cherry-pick (AID 687027); assay type: functional, cell-based;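 note: luciferase reporter driven by Pax8 target thyroperoxidase promoter measured by SteadyGlo luminescence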
Sequence of Paired box protein Pax-8 (Q06710 whole entry): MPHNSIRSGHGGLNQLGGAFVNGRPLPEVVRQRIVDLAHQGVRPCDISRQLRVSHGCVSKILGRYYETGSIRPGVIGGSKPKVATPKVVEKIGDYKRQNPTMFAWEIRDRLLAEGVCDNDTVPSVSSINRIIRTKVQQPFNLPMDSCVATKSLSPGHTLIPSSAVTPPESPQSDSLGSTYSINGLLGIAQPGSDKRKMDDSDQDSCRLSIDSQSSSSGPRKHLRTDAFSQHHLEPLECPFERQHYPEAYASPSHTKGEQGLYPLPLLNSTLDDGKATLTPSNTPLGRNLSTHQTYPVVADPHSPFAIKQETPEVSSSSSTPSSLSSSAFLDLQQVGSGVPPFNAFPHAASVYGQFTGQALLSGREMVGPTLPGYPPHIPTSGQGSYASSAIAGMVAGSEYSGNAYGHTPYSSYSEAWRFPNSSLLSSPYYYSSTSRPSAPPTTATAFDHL

[15] = non-specific cell cytotoxicity, dose response, cytotoxicity control for PAX8 inhibitor project, plate reader, dry powder samples (AID 743021); assay type: functional, cell-based

COCCN1C(=O)Cc2c1nc(N)c1c(N)nc(N3CCN(c4ccc(F)cc4)CC3)c(C#N)c21
IC50 [1]: > 50 µM (not active)

COc1ccc(OC)c(NC(=O)CCc2nnc3ccc(NCc4ccco4)nn23)c1
EC50 (cells [2]): > 350 µM (not active)
EC50 (cells [3]): > 350 µM (not active)

CN1CC(=O)N=C1NC(=O)C12CC3CC(CC(C3)C1)C2
CC50 [4]: > 40 µM (active)
IC50 (cells [5]): 23.9 µM (active)

COC(=O)c1ccc(N2C(=O)CC(N3CCC(O)(c4ccc(Br)cc4)CC3)C2=O)cc1 (stereo not drawn)
AC50 [6]: 2.85 µM (active)

CCOC(=O)c1c(-c2ccc(C)c(C)c2)csc1NC(=O)C1CC=CCC1C(=O)O (stereo not drawn)
IC50 (Leucine aminopeptidase): 10.3 µM (active)
IC50 (Genome polyprotein): 43.5 µM (active)

COc1ccccc1N1CCN(CCCNC(=O)C2CCCN(c3ncnc4c3nc3n4CCCCC3)C2)CC1 (stereo not drawn)
EC50 (cells [2]): > 350 µM (not active)
EC50 (cells [3]): > 350 µM (not active)

NC(=S)NNC(=O)c1cc(C(F)(F)F)cc(C(F)(F)F)c1
EC50 (cells [2]): > 350 µM (not active)
EC50 (cells [3]): > 350 µM (not active)

Cc1cc(=O)oc2c3c(cc(OCC(=O)Nc4ccc(CCO)cc4)c12)OC(C)(C)CC3
AC50 [7]: > 70 µM (inactive)
AC50 [8]: > 70 µM (inactive)

CCOc1cc2c(C#N)c(N3CCCCC3)nc(N)c2c(N)n1
IC50 [1]: > 50 µM (not active)

CN(C)c1ccc(NC(=O)/C=C/c2ccccc2Cl)cc1
IC50 [9]: > 54 µM (active)

COc1ccc(-c2nnc(SCC(=O)Oc3ccc(C)cc3)o2)cc1
AC50 [6]: 2.53 µM (active)

COCCNc1nc(C)nc2c1nc(-c1ccccc1)n2CCCN1CCCCC1C (stereo not drawn)
AC50 (Cytochrome P450 3A4): 3.98 µM (inconclusive)

COc1cccc(C(=O)Nc2cc(Cl)c(O)c(Cl)c2)c1
IC50 [9]: 3.46 µM (not active)

CCCCCCC(=O)N(O)C1CC(=O)N(c2ccc(Cl)cc2)C1=O (stereo not drawn)
AC50 [6]: 1.64 µM (active)

CC1(C)CC[C@]2(C(=O)O)CC[C@]3(C)C(=CCC4[C@@]5(C)CC[C@H](O)C(C)(C)C5[C@H](O)C[C@]43C)C2C1 (stereo partly drawn)
AC50 (Cytochrome P450 3A4): 25.1 µM (inconclusive)

CC1(C)CCC2(C(=O)O)CC[C@]3(C)C(=CCC4[C@]5(C)CCC(O)C(C)(C)C5C(O)C[C@]43C)C2C1 (stereo partly drawn)
AC50 (Cytochrome P450 3A4): 2.51 µM (inconclusive)

COC(=O)c1cccc(C23CC4(C2)[C@H](CN(C)[C@@H]4c2ccccc2)C3c2ccc(Cl)nc2)c1 (stereo partly drawn)
AC50 (Cytochrome P450 3A4): 5.01 µM (inconclusive)

CN(CCO)c1nc(N)c2c(N)nc3c(c2c1C#N)CC(=O)N3C1CCCC1
AC50 (Cytochrome P450 1A2): 2.82 µM (inconclusive)
IC50 [1]: > 50 µM (not active)

CC1(Cc2ccc(Cl)cc2)C(=O)Nc2ccc(S(=O)(=O)NC3CCCCC3)cc21 (stereo not drawn)
AC50 [10]: 0.674 µM (active)
AC50 [11]: 396 nM (active)
AC50 [12]: 1.12 µM (active)
AC50 [13]: 1.04 µM (active)

CCCCCCN1C[C@H](n2cc(-c3ccc(F)cc3)nn2)[C@@H](O)C[C@@H]1c1ccc(Cl)cc1
AC50 [7]: 25.8 µM (active)
AC50 [8]: 10.3 µM (active)

Cc1nnc(C)n1/N=C/c1cc(Br)cc(Br)c1O
AC50 [6]: 1.68 µM (active)

CCOc1ccc(N2C(=O)CC(Sc3nc(C)cc(C)n3)C2=O)cc1 (stereo not drawn)
EC50 (cells [2]): > 350 µM (not active)
EC50 (cells [3]): > 350 µM (not active)

COC(=O)C1(C(=O)OC)C[C@H](c2ccc(OC)cc2)N(Cc2ccccc2OC)[C@@H]1c1ccccc1
AC50 [10]: 8.22 µM (active)
AC50 [11]: 1370 nM (active)
AC50 [12]: 1.58 µM (active)
AC50 [13]: 2.48 µM (active)

C[C@@H]1CCCCO[C@@H](CN(C)Cc2ccccc2)[C@H](C)CN([C@H](C)CO)C(=O)c2cc(NC(=O)Nc3ccc(C(F)(F)F)cc3)ccc2O1
AC50 [14]: > 70 µM (inactive)
AC50 (Paired box protein Pax-8): 4.61 µM (active)

CCCNC(=O)Nc1ccc2c(c1)OC[C@@H](C)N(Cc1ccc(-c3ccccn3)cc1)C[C@@H](C)[C@H](OC)CN(C)C2=O
AC50 (Paired box protein Pax-8): 30.1 µM (active)
AC50 [15]: 41.7 µM (active)

O=c1cc(-c2ccccc2O)oc2c(O)c(O)ccc12
AC50 (Cytochrome P450 3A4): 31.6 µM (inconclusive)

CCN(/N=C/c1ccc(N(C)C)cc1)c1nc2ccccc2[nH]1
IC50 [9]: 1.44 µM (active)

CCc1ccc(NC(=O)COC(=O)c2cccs2)cc1
EC50 (cells [2]): 79.4 µM (active)
EC50 (cells [3]): > 350 µM (not active)

CC(C)(O)C(=O)Nc1ccc([N+](=O)[O-])c(C(F)(F)F)c1 [HYDROXYFLUTAMIDE]
AC50 (Cytochrome P450 3A4): 25.1 µM (inconclusive)

COC(=O)c1cc(OC)c(=O)c2c(OC)c(OC)ccc2c1 [METHYL 7-DESOXYPURPUROGALLIN-7-CARBOXYLATE TRIMETHYL ETHER]
AC50 (Cytochrome P450 3A4): 39.8 µM (inconclusive)
